{
  "source": "patent US9439425B2",
  "about": "“Plant disease control composition and plant disease control method” (Sumitomo Chemical Company, Limited, priority 2012, dated 2016)",
  "data": [
    {"system": "powdery mildew", "assay": "Test Example 1: foliar spray on potted wheat, powdery mildew inoculation, control value from onset area rate", "assay_type": "in vivo, Wheat (Shirogane)", "conditions": "treatment concentration 0.1 ppm, single agent; foliage spray on wheat, powdery mildew inoculated, 7 days at 21° C.", "description": "(§1) A plastic pot was stuffed with a sand soil. Wheat (Shirogane) was sown thereon, allowed to grow in a greenhouse at 24° C. for 7 days, transferred to a greenhouse at 15° C., and then allowed to grow for 14 days. A water-diluted solution of the present compound (I) and a water-diluted solution of pyriofenone, metrafenone, cyflufenamid, quinoxyfen or proquinazid were mixed to prepare an agent solution containing prescribed amounts of the present compound (I) and, pyriofenone, metrafenone, cyflufenamid, quinoxyfen or proquinazid. The agent solution was sprayed to the foliage of the wheat, then the plant was air-dried, and then a powdery mildew was inoculated. After the inoculation, the plant was allowed to stand at 21° C. for 7 days and then an onset area rate was examined visually and a control value was calculated using the following formula. Moreover, the present compound (I), pyriofenone, metrafenone, cyflufenamid, quinoxyfen or proquinazid was diluted with water to prepare water-diluted solutions with a prescribed concentration, the same test was carried out for each of the solutions and control values were calculated. Control value (%)=100×(A−B)/A A: an onset area rate of the non-treated group B: an onset area rate of the treated group Results are shown in Table 1.", "units": {"Control value": "%"}, "values": [
      {"smiles": "C=CCSC(=O)n1c(N)c(-c2ccccc2C)c(=O)n1C(C)C", "note": "[Present compound (I)]", "Control value": 3}
    ]},
    {"system": "powdery mildew", "assay": "Test Example 1: foliar spray on potted wheat, powdery mildew inoculation, control value from onset area rate", "assay_type": "in vivo, Wheat (Shirogane)", "conditions": "treatment concentration 0.15 ppm, single agent; foliage spray on wheat, powdery mildew inoculated, 7 days at 21° C.", "description": "as §1", "units": {"Control value": "%"}, "values": [
      {"smiles": "COc1cc(C)c(C(=O)c2c(OC)ncc(Cl)c2C)c(OC)c1OC", "note": "[Pyriofenone]", "Control value": 69},
      {"smiles": "CCCOc1nc2ccc(I)cc2c(=O)n1CCC", "note": "[Proquinazid]", "Control value": 74},
      {"smiles": "COc1cc(C)c(C(=O)c2c(OC)ccc(Br)c2C)c(OC)c1OC", "note": "[Metrafenone]", "Control value": 71},
      {"smiles": "O=C(Cc1ccccc1)N/C(=N\\OCC1CC1)c1c(C(F)(F)F)ccc(F)c1F", "note": "[Cyflufenamid]", "Control value": 52},
      {"smiles": "Fc1ccc(Oc2ccnc3cc(Cl)cc(Cl)c23)cc1", "note": "[Quinoxyfen]", "Control value": 71}
    ]}
  ]
}
